Measurements as given in a melting point compilation (Tetko et al.; mined from patent text by program, amines drawn as free bases though some values may be those of a salt).

| SMILES | melting point |
| --- | --- |
| CNc1nnc(C(C)(C)C)c(=O)n1NC | 170 to 171 °C |
| CC(C)Nc1nc(N)c(C(=O)NC(N)=S)nc1Cl | 195 °C |
| c1ccc2c(c1)nnn2CSCn1nnc2ccccc21 | 179 to 181 °C |
| CC(=O)Nc1ccc(OC(F)(F)F)cc1-c1ccccc1 | 94 °C |
| O=C(O)c1ccccc1CCCCc1ccccc1 | 82 to 84 °C |
| O=c1oc2ccc(-c3ccc(F)cc3F)cc2c(=O)n1-c1cccc(C(F)(F)F)c1 | 165 to 166 °C |
| CC(C(=O)O)c1ccc(N2C(=O)C3CCCCC3C2=O)cc1 (configuration not stated) | 224 to 226 °C |
| O=C(Cc1ccccc1Cl)Nc1ccc(C(=O)Oc2ccccc2)c(Cl)c1 | 160 to 163 °C |
| CC(=O)NC1CCN(c2ccc(C#N)c3ccccc23)C1 (configuration not stated) | 154 to 155 °C |
| CCCc1c(COc2ccc(C(=O)Cc3nnn[nH]3)cc2)ccc(C(C)=O)c1O | 207 to 209 °C |
| COc1ccccc1OCCOS(C)(=O)=O | 73 to 76 °C |
| Cn1c2cc(OCCO)ccc2c2c3c(c(-c4ccccc4Cl)cc21)C(=O)NC3=O | 309 to 312 °C |
| CC(C)n1nc(-c2c(-c3ccccc3)nn3ccc(OCCC4CCCC4)cc23)ccc1=O | 160 °C |
| CCCCc1ncc(/C=C(\Cc2cccs2)C(=O)O)n1Cc1ccc(C(=O)O)cc1Cl | 234 to 236 °C |
| COC(=O)c1ccc(Cl)cc1NC(=O)CSc1ccccc1C(=O)O | 207 to 209 °C |
| CCCCN1N=C(c2ccc3c(c2)C(C)(C)CC(=O)N3C)C(C)CC1=O (configuration not stated) | 137 to 139 °C |
| CS(=O)(=O)c1c(C(=O)NN=Cc2ccc3ccccc3c2)[nH]c2ccccc12 | > 250 °C |
| O=C(Nc1ccccn1)Nc1cnns1 | 227 °C |
| CC(=O)c1cc([N+](=O)[O-])c2c(c1)C(C)(C)CCO2 | 117 to 119 °C |
| COc1cc2c(c(Cl)c1Cl)C(=O)C(CCCCl)(CCC(C)=O)C2 (configuration not stated) | 120 to 122 °C |
| Cc1cc(C(=O)CCc2cc(-c3ccc(C(F)(F)F)cc3)nn2C(C)C)ccc1OCC(=O)O | 160 to 163 °C |
| CCS(=O)(=O)N[C@H](C(=O)NCCc1cc(Br)c(O)c(OC)c1)C(C)C | 145 to 147 °C |
| Nc1nc(O)c2c(n1)NCC(CCC1CCC(N[C@@H](CCC(=O)O)C(=O)O)CC1)C2 (some centres not stated) | 210 to 225 °C |

| SMILES | melting point |
| --- | --- |
| COC(=O)CC(O)C(O)CC(=O)OC (configuration not stated) | 80 to 81 °C |
| O=C(Nc1cccc(S(=O)(=O)NC2CC2)c1)c1cnn2c(C(F)F)cc(-c3ccc(Cl)cc3)nc12 | 262 °C |
| O=Cc1c2ccccc2c(CO)c2ccccc12 | 182 to 184 °C |
| O=C(Nc1cnc2c(c1)nc1n2CCC1O)c1cc2cc(C(F)(F)F)ccc2n1Cc1cccc(F)c1 (configuration not stated) | 267 to 268 °C |
| COCc1cccc(C(C#N)c2nc(OC)cc(OC)n2)c1[N+](=O)[O-] (configuration not stated) | 112 to 113 °C |
| Nc1ccc(S(=O)(=O)Nc2nc(-c3cccc([N+](=O)[O-])c3)cs2)cc1 | 191 to 193 °C |
| Fc1cc(F)c2oc(CCC#Cc3ccccn3)nc2c1 | 93.5 to 94 °C |
| CCON(Cc1ccc(F)cc1)C(=O)C1=C(O)C(=O)N(C)C1 | 113 to 114 °C |
| O=C(OCCOCc1ccccc1)n1c(-c2cscn2)nc2ccccc21 | 93 to 95 °C |
| CCCOc1ccccc1-c1nc(NC(C)=O)cc(=O)[nH]1 | 230 to 231 °C |
| CC1(C)OC(=O)[C@H](CC(=O)O)O1 | 108 to 110 °C |
| CCN(CC1(C(F)(F)F)c2cc(Cl)ccc2Nc2ncccc21)C(C)C (configuration not stated) | 140 to 141 °C |
| CC=CN1CC([N+](=O)[O-])=CN(C(C)c2ccc(Cl)nc2)C1(C)N (configuration not stated) | 148 to 150 °C |
| Cc1c(Cl)c(Oc2c(Cl)cc(C(F)(F)F)cc2Cl)nn1C(=O)NCCCl | 141 to 143 °C |
| CC1(C)OC(=O)C(c2cccc(F)c2)=C1c1ccc(S(C)(=O)=O)cc1 | 173 °C |
| CCCCc1nc2cccc(C(=O)O)c2n1Cc1ccc(-c2ccccc2-c2nnnn2C(c2ccccc2)(c2ccccc2)c2ccccc2)cc1 | 120 to 123 °C |
| Nc1c(N=O)c(=O)[nH]c(=O)n1Cc1ccc(Cl)cc1 | > 320 °C |
| O=[N+]([O-])c1cc(Br)ccc1N1CCc2ccccc21 | 100 to 102 °C |
| COc1cccc(OC)c1C=CC(=O)c1c(OC)cccc1OC | 179 to 180 °C |
| Cc1ccc(Oc2ccccc2NN)c(O)c1 | 108 to 110 °C |
| CC(C)=C1C(=O)N(c2ccc(O)cc2)C(=O)/C1=C(\C)c1c(C)n(C)c2ccccc12 | 231 to 233 °C |
| CCCN1CCCC(c2cccc(O)c2)C1=O (configuration not stated) | 61 to 63 °C |
| CC12CCC3C(CCC4=CC(=O)CCC43CO)C1CCC2O (configuration not stated) | 205 to 207 °C |

| SMILES | melting point |
| --- | --- |
| COCc1ccc(Cl)cc1C(=O)OC | 44 to 45 °C |
| Cc1nc2c(c(=O)[nH]1)-c1ccc(Cl)cc1C(c1ccccc1)=[N+]([O-])C2 | 219 to 221 °C |
| Cc1ccc2nc(C3(c4ccc(S(N)(=O)=O)cc4)C=C(C(F)(F)F)NN3)sc2c1 (configuration not stated) | 257 to 258 °C |
| CON=Cc1ccc2c(c1CN1CCN(C)CC1)OCO2 | 100 to 102 °C |
| O=C(Cl)N1CCOCC1 | 138 to 139 °C |
| O=C1CCC2N1CC(=O)N2c1ccccc1 (configuration not stated) | 185 to 188 °C |
| CC(C)C(=O)C[C@@H](O)C(=O)O | 67 to 68 °C |
| CCc1cc(NCc2ccc(-c3ccccc3C#N)cc2)n2ncc([N+](=O)[O-])c2n1 | 205 to 207 °C |
| CCN1CC(=O)N(C(C)c2ccc(F)cc2)C1=S (configuration not stated) | 93 to 95 °C |
| O=C1c2ccccc2CN1C1CCN(c2ccc(C(OCc3ccccn3)c3ccccc3)cc2)CC1 (configuration not stated) | 149 to 151 °C |
| CCOC(=O)c1c(C)cc2c(c1C)c(=O)n(-c1ccccc1Cl)c(=O)n2CC(=O)N1CCN(C)CC1 | 64 to 65 °C |
| COc1ccc(C(=O)c2cccn2C)cc1 | 66 to 68 °C |
| Cc1ccccc1NC(=O)C1CCc2nc[nH]c2C1 (configuration not stated) | 100 to 105 °C |
| COC(=O)C1(C)Oc2ccc(Cl)cc2C(C)(C)O1 (configuration not stated) | 89 °C |
| ON=CCOc1ccc(Oc2ccccc2)cc1 | 102 to 105 °C |
| O=C(O)c1oc(-c2ccccc2)cc(=O)c1Cl | 250 °C |
| c1ccc2c(c1)CSc1ccccc1C2n1ccnc1 (configuration not stated) | 162 to 164 °C |
| COc1cc(Cl)c2nc(-c3ccc(OC)c(F)c3)cc(Br)c2c1 | 156 to 157 °C |
| COC(=O)c1nc(C)c(-c2ccncc2C)s1 | 95.5 to 96.3 °C |
| COc1c(N2C[C@H]3CC=C[C@@]3(N)C2)c(F)cc2c(=O)c(C(=O)O)cn([C@@H]3C[C@@H]3F)c12 | 206 to 208 °C |
| CC(C)CCc1cc(C(O)=S)cc(N)c1C(=O)c1ccccc1 | 141 to 142 °C |

More lines, now with the values ahead:

| melting point | SMILES |
| --- | --- |
| 133 to 135 °C | COc1cc2c(cc1Nc1ncc(C(F)(F)F)c(N[C@H]3[C@@H](C(N)=O)[C@@H]4C=C[C@H]3C4)n1)CCN(CC(=O)N(C)C)CC2 |
| 158 to 160 °C | O=[N+]([O-])c1cccc(-c2nc(Nc3ccccc3)cc3cccnc23)c1 |
| 197 to 198 °C | CCOC(=O)c1cnc2nn(CC)cc2c1O |
| 283 to 285 °C | NC(=O)Cn1c(=O)c2ncn3c2n(c1=O)CC=C3c1cccc(C(F)(F)F)c1 |
| 166 to 167 °C | CC1=C(C2C=CN(C(=O)OCC(Cl)(Cl)Cl)c3ccccc32)SCC(=O)N1 (configuration not stated) |
| 126 °C | CCOC(=O)C(=O)Nc1ccc(C)cc1[N+](=O)[O-] |
| 224 to 227 °C | CN(C)c1ccc(/C=C/c2cc(/C=C/c3ccc4cc[nH]c4c3)[nH]n2)cc1 |
| 74 to 75 °C | N#CC(C(=O)C(F)(F)F)c1cccc(Cl)c1Cl (configuration not stated) |
| 76 to 78 °C | CCCCCS(=O)(=O)NC(=O)C(Cc1ccc(OCCOC)cc1Oc1ncc(C(F)(F)F)cc1Cl)OC (configuration not stated) |
| 150 °C | CCN(Cc1cc(Cl)ccc1OCC1CC1)c1ccc(C(=O)NS(=O)(=O)C(F)(F)F)nn1 |
| 34 to 36 °C | COC(=O)c1ncccc1Br |
| 190 to 191 °C | CCC(=O)N(C)c1cccc(-c2ccc3nnc(N)n3n2)c1 |
| 206 to 207 °C | CCc1cc(OC)c(OC)cc1Cc1cnc(N)nc1N |
| 108 to 110 °C | CCOC(=O)Cc1ccc(CCC(NC(=O)OC)C(=O)O)cc1 (configuration not stated) |
| 110 °C | COc1ccc(C(O)CN2CCNC2=S)cc1 (configuration not stated) |
| 82 to 83 °C | CC(=O)OC(C)c1cccc2cc(C(C)=O)oc12 (configuration not stated) |
| 68 °C | CCCC[C@H]1CC[C@H](c2ccc(-c3ccc(CCc4ccc(F)cc4)cc3)c(F)c2)CC1 |
| 72 to 78 °C | O=c1c(OCC2CC2)cn(-c2cccc(C(F)(F)F)c2)nc1-c1ccnn1-c1ccccc1 |

| melting point | SMILES |
| --- | --- |
| 204 to 205 °C | CCc1cc(OCc2ccc(-c3ccccc3C(=O)O)cc2)c2ccccc2n1 |
| 174 to 176 °C | CCOC(=O)c1cc(C(=O)CBr)[nH]n1 |
| 166 to 168 °C | COCc1nnc(-c2cccnc2)n1-c1c(C)c(Cl)cc2nc(OC)c(OC)nc12 |
| 78 to 80 °C | CCOP(=O)(OCC)C(Sc1cc(C(C)(C)C)c(O)c(C(C)(C)C)c1)P(=O)(OCC)OCC |
| 133 to 134 °C | CCOC(=O)C1=Cc2cc(Cl)ccc2NC1C(F)(F)F (configuration not stated) |
| 127 to 129 °C | CC(CC(=O)O)C(=O)c1ccc(N2CCOCC2)c([N+](=O)[O-])c1 (configuration not stated) |
| 185 to 189 °C | O=Cc1cccc(-c2nnn[nH]2)c1 |
| 159 to 161 °C | Cc1cc(O)c2ccccc2c1OCc1ccccc1 |
| 155 to 157 °C | COc1ccc(C(=O)COc2ccc3oc(C(=O)c4ccc(OC)cc4)c(C)c3c2)cc1 |
| 130 to 132 °C | COc1ccc2[nH]c(S(=O)Cc3cc(N)c(Br)cn3)nc2c1 (configuration not stated) |
| 144 to 145 °C | CN1CCN(c2cccc3c2C[C@H](NC(=O)c2ccccc2OS(C)(=O)=O)CC3)CC1 |
| 167 to 168 °C | CC(C)Cn1c(=O)n(C)c(=O)c2c(Sc3nccs3)c(C(=O)c3ccnc4ccccc34)sc21 |
| 201 to 203 °C | O=c1cc(-c2ccncc2)nc2n(CCCc3c[nH]c4ccccc34)ccn12 |
| 193 to 194 °C | Cc1c(C(=O)Nc2ccc(N3CCC(N4CCOCC4)CC3)c(C(F)(F)F)c2)cnn1-c1ccc(Cl)cc1 |
| 186 °C | Cc1cc2c(cc1Cl)NC(=O)C2c1ccccc1Cl (configuration not stated) |
| 51 to 53 °C | CCCCCCCCCCCCCCCCOC(=O)c1cccc([N+](=O)[O-])c1 |
| 129 to 135 °C | ClC1=Nc2cc(Cl)ccc2Cn2cccc21 |
